From PMC4029172 (eLife, 2014)
≈ marks a conversion by molar mass, not a printed value. Numbered stars: 1 amine (or outer) side, 2 acyl side, 3 side chain; on linkers, the order of the positions; unused ones are H or OH. Bridge positions count the residues as written; N and C are the ends. Square brackets hold non-standard residues; d marks the D form. Peptide text beside a SMILES is read from it. * marks the point of attachment. X4 = CC(Oc1ccc(C(N[*:1])C(=O)[*:2])cc1)C(O)(C=CC(=O)[*:3])CCl; NMeF = CN[CH](Cc1ccccc1)C(=O)O; X3 = CC(C)C(O)C(C)C(=O)*

Columns and labels:
[1] = tested on: Enterobacter cloacae ATCC 13047; experiment: microbe, parasite or virus in culture; assay type: cell-based; conditions: ATCC13047
[2] = tested on: Haemophilus influenzae ATCC 49247; experiment: microbe, parasite or virus in culture; assay type: cell-based; conditions: ATCC49247
[3] = tested on: Moraxella catarrhalis ATCC 25238; experiment: microbe, parasite or virus in culture; assay type: cell-based; conditions: ATCC25238
[4] = biological target: Thermus thermophilus RNAP (Thermus thermophilus, UniProt Q8RQE8+Q8RQE9); experiment: biochemical
Chain of Thermus thermophilus RNAP (Q8RQE8 whole entry): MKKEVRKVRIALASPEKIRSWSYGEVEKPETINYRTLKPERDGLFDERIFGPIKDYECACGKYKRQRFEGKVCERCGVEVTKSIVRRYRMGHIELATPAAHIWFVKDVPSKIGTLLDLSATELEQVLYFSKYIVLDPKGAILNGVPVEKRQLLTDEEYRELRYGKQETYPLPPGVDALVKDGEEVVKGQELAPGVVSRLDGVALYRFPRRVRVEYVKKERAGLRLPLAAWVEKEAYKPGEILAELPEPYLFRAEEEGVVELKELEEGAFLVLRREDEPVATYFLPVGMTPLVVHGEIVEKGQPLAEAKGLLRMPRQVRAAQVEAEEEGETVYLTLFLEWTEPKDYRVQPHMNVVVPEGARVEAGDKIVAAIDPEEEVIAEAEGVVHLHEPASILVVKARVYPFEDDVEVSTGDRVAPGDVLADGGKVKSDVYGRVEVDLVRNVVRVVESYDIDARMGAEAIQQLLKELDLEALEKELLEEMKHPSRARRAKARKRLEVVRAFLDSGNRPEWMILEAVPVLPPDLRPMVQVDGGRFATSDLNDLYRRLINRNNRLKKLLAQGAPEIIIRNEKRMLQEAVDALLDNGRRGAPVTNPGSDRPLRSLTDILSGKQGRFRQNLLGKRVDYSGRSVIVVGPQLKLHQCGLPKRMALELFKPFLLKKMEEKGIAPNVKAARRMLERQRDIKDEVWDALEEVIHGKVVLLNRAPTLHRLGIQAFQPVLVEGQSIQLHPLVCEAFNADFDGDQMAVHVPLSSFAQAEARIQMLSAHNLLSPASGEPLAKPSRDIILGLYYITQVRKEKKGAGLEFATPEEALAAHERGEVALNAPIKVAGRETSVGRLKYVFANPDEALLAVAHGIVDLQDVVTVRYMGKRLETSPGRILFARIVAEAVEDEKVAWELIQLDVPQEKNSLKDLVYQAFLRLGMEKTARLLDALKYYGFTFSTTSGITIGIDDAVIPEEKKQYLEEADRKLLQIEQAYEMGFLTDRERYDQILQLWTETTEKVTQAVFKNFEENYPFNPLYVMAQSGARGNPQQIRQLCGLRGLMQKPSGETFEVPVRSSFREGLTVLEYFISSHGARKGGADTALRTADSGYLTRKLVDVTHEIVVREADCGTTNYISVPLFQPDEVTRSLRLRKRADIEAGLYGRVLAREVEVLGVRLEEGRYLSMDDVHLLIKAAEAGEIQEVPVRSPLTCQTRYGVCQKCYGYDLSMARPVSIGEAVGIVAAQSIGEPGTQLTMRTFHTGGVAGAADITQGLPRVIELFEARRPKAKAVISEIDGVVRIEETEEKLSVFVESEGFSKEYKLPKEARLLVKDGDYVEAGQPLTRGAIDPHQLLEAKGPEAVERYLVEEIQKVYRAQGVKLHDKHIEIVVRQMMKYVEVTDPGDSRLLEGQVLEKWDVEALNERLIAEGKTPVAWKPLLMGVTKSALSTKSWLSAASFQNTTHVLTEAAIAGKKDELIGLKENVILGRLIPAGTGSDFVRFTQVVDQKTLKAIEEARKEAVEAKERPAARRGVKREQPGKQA
Chain of Thermus thermophilus RNAP (Q8RQE9 whole entry): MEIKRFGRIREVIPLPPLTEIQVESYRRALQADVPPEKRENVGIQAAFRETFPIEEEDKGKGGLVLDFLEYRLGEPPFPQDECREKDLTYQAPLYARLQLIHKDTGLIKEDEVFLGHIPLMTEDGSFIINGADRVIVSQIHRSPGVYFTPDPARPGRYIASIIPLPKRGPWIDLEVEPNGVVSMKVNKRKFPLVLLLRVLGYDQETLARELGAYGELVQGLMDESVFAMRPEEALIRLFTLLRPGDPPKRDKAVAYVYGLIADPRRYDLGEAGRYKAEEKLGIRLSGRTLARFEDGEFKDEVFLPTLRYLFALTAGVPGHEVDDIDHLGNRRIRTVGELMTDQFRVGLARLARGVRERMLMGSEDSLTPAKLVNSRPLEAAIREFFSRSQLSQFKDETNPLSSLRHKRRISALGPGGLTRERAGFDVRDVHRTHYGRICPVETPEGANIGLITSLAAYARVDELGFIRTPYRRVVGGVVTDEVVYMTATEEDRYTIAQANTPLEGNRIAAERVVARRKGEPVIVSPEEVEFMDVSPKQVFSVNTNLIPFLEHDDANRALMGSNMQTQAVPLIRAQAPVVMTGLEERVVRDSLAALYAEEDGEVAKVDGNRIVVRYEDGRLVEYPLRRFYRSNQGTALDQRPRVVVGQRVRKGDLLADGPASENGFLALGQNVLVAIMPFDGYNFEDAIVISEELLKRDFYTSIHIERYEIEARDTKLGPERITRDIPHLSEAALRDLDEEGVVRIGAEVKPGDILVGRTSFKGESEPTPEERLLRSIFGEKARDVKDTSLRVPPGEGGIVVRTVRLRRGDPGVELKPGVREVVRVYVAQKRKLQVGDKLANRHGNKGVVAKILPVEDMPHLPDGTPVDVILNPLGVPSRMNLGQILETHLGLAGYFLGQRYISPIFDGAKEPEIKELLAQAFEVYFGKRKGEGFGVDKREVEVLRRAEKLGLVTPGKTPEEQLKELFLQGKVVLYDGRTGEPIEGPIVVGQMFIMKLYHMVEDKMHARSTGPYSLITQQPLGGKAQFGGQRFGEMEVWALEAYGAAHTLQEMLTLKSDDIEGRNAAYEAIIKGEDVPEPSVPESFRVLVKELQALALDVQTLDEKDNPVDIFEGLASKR

Question: `CCC(C)C1NC(=O)C(NC(=O)C(C)C(O)C(C)C)C(C)OC(=O)C2COC(=O)CNC(=O)C=CC(O)(CCl)C(C)Oc3ccc(cc3)C(NC1=O)C(=O)N(C)C(Cc1ccccc1)C(=O)NC(C(C)O)C(=O)N2` (stereo not shown) [SalB, salinamide B] (X3-TI[X4][NMeF]TS; ester 1-C; linker 3-6 via G; configuration not given here) was tested. Which MIC [1] did it give?
Answer: 12.5 µg/mL (≈ 11.8 µM)

Question: What about the MIC [2] of the same compound?
Answer: 12.5 µg/mL (≈ 11.8 µM)

Question: And the MIC [3]?
Answer: > 50 µg/mL

Question: What about the IC50 [4] of the same compound?
Answer: > 100 µM
